# Data reported in US8476025B2, “ATM-dependent phosphorylation of Sp1 is involved in the cellular response to DNA damage and enhances cellular survival after DNA damage” (Philadelphia Health and Education Corporation, priority 2007, dated 2013).
# Read-outs that look alike come from different tables or passages of the source.
# Tests used:
# U2OS cells = assay: Clonogenic rescue experiment in Sp1-depleted U2OS cells exposed to H2O2; assay type: cell-based, human; conditions: H2O2 for one hour, colonies counted after 11 days
# Description: In the case of the rescue experiment, U2OS cells were transfected with siRNA and replated 72 hours later. The cells were then transfected with WT Sp1 or Sp1-101A and 48 hours later cells were exposed to H2O2 and re-seeded onto 60 mm dishes. Colonies were fixed and stained in crystal violet 11 days after plating and then counted.
# ATM = ATM (Homo sapiens, UniProt Q13315); conditions: Hickson et al. 2004; cited from earlier work
# ATM, sequence (Q13315 whole entry): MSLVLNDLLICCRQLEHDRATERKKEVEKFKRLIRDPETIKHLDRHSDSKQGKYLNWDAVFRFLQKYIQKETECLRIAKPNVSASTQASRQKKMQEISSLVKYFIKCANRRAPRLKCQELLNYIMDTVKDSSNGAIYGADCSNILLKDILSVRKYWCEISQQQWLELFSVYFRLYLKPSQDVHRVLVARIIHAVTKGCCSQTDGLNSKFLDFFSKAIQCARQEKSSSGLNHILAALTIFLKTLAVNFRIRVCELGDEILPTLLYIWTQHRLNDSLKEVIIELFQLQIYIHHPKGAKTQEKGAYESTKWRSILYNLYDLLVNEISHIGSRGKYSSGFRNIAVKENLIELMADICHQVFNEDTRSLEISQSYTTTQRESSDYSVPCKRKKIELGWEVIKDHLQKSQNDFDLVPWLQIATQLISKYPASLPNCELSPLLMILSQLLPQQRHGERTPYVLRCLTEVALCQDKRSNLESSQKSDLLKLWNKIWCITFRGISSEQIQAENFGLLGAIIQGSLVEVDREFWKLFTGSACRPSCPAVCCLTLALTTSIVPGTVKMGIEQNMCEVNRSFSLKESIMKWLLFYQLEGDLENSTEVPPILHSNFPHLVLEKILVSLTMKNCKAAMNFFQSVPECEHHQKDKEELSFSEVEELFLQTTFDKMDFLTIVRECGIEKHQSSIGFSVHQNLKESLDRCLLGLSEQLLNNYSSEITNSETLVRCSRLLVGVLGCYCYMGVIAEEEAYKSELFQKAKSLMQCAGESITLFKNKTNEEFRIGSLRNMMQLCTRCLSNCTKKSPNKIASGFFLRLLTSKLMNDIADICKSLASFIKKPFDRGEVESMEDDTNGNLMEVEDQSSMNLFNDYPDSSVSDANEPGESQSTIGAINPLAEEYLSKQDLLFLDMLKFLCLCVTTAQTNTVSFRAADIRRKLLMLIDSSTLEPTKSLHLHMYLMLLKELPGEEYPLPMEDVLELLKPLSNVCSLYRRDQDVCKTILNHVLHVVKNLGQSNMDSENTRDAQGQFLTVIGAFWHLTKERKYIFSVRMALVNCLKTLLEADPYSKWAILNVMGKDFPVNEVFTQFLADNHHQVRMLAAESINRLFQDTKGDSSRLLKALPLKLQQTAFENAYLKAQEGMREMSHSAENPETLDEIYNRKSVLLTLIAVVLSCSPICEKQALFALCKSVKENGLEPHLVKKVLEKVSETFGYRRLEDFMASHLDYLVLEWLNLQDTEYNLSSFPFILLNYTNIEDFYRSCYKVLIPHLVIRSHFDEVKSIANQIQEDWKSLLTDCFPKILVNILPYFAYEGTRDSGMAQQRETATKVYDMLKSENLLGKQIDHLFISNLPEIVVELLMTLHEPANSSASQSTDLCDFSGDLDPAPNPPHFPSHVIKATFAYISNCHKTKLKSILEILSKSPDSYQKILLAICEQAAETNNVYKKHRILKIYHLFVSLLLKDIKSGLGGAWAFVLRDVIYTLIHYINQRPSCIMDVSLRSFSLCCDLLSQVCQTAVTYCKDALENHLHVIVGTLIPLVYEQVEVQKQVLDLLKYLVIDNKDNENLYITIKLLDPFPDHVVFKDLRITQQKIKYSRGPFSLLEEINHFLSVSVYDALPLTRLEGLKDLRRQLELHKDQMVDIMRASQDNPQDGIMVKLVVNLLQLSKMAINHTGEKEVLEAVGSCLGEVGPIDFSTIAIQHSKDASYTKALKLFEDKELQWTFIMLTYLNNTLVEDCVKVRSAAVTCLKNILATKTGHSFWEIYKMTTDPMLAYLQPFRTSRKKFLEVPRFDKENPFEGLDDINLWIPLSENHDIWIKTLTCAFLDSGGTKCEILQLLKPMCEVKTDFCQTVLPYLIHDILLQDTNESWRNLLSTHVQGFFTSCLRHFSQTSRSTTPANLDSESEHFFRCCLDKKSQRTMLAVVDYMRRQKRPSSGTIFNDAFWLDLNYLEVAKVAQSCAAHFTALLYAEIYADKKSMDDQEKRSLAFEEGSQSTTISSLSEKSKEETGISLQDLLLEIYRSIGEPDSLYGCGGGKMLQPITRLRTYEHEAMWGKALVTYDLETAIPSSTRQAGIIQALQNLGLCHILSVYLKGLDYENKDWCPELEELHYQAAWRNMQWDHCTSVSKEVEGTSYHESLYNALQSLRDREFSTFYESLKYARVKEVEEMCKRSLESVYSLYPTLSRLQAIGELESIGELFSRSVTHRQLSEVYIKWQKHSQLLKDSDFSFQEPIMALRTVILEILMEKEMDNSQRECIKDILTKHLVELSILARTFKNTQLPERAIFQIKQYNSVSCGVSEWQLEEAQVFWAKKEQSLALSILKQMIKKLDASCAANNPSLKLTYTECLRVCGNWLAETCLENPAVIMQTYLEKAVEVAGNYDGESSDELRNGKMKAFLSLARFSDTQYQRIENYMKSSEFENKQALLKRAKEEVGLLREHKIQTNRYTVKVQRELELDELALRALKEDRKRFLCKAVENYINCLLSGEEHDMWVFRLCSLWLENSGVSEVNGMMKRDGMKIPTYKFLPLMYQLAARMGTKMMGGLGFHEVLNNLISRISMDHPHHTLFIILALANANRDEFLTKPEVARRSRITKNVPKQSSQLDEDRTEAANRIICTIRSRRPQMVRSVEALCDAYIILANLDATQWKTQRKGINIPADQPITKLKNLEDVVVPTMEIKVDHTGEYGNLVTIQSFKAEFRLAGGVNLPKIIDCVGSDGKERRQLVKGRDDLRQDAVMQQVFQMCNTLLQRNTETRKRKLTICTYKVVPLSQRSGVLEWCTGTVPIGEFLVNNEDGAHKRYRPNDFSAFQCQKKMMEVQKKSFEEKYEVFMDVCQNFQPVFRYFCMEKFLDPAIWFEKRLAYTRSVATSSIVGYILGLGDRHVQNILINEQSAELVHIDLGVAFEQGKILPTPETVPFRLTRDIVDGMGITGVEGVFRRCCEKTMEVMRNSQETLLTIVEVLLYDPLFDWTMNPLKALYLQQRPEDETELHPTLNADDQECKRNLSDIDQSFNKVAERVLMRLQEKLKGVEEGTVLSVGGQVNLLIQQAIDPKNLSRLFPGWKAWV
# [1] = tested on: Phosphorylation of Sp1 and H2AX; assay: Immunoblot of H2O2-induced Sp1 and H2AX phosphorylation in NHDFs pretreated with wortmannin or KU55933; assay type: cell-based, human; conditions: 200 μM H2O2, pre-treatment with 10 μM KU55933
# [2] = tested on: Sp1 phosphorylation at serine 101; assay type: cell-based, human; conditions: U2OS, 10 μM ATM inhibitor
# [3] = assay type: cell-based, human; conditions: U2OS, 10 μM ATM inhibitor, 200 μM H2O2
# ATM kinase activity = assay: Indirect immunofluorescence for γSp1^101 and phospho-ATMs1981 in UV-exposed U2OS cells; assay type: cell-based, human; conditions: 0.5 J/m^2 UV, pre-treated with 10 μM KU55933
# Description: U2OS cells were plated onto glass coverslips 24-36 hours before treatment. […] U2OS cells were washed in ice-cold PBS twice and pre-extracted in 0.2% Triton X-100/30% ddH2O/20 mM PMSF in PBS for 5 minutes at 4° C. Cells were then washed with PBS and fixed in 2% Para-formaldehyde/3% sucrose in PBS for 10 minutes at room temperature. Cells were washed twice in PBS at room temperature then permeablized in 0.5% Triton X-100 in PBS for 5 minutes at 4° C. Cells were washed 2 times in room temperature PBST (0.1% Tween 20, 0.02% Sodium azide in PBS) and incubated in primary antibody overnight at 4° C., mouse monoclonal γH2AX (ser139, Upstate Biotechnology), diluted 1:1000 in PBST solution, mouse P-ATMser1981 (Cell Signalling, diluted 1:1000) or rabbit polyclonal γSp1^101 (diluted 1:500, 21st Century Biotechnology). Cells were washed in PBST three times followed by the addition of secondary antibody, AlexaFlour488 donkey anti-rabbit, diluted 1:1000 in PBST and AlexaFlour594 donkey anti-mouse antibody, diluted 1:1000 in PBST for 1 hours in the dark. Cells were washed 4 times with PBST. Slides were mounted using Vectashield mounting medium containing DAPI (Vector Labs).
# Sp1 phosphorylation [4] = conditions: NHDFs
# Sp1 phosphorylation [5] = conditions: fibroblasts with wild-type ATM, one hour exposure
compound,measurement,setting,value
"Sp1^S101A: exogenously expressed Sp1 mutant with serine 101 changed to Ala, not phosphorylated in response to damage",Colony survival in response to H2O2,U2OS cells,failed to rescue
O=c1cc(-c2cccc3c2Sc2ccccc2S3)oc(N2CCOCC2)c1 [KU55933],ATM kinase activity,ATM,inhibited
same,H2O2-induced phosphorylation of Sp1 and H2AX,[1],reduced but not abolished
same,Electromobility shift in Sp1 from the 95 kDa to 105 kDa form,[2]; 200 μM H2O2 for one hour,blocked
same,Phosphorylation of Sp1 at serine 101,[2]; 200 μM H2O2 for one hour,abolished
same,Overall electromobility shift of total Sp1,[2]; 30 J/m^2 UV for four hours,partial reduction
same,Phosphorylation of Sp1 at serine 101,[2]; 30 J/m^2 UV for four hours,abolished
same,Phosphorylation of H2AX,[3],diminished
same,ATM phosphorylation at serine 1981,ATM kinase activity,still phosphorylated
same,γSp1^101 immunofluorescence signal,ATM kinase activity,lack of γSp1^101
"wild-type Sp1: exogenously expressed wild-type Sp1 (SEQ ID NO: 2) with HA-tag, transfected in pFLAG-CMV2",Colony survival in response to H2O2,U2OS cells,restored survival to the level observed with non-targeting RNAi
"OO [H2O2, hydrogen peroxide]",Time by which the 95 kDa form of Sp1 became the predominant species again,Sp1 phosphorylation [4]; 200 μM H2O2,≤ 8 h
same,Time of peak Sp1 phosphorylation,Sp1 phosphorylation [4]; 200 μM H2O2,one hour
same,Time to first observed Sp1 phosphorylation post-treatment,Sp1 phosphorylation [4]; 200 μM H2O2,15 min
same,H2O2 concentration at which 105 kDa becomes the major Sp1 species,Sp1 phosphorylation [4]; one hour exposure,200 µM
same,H2O2 concentration at which the Sp1 shift to 105 kDa is detected,Sp1 phosphorylation [4]; one hour exposure,50 µM
same,H2O2 concentration at which Sp1 was shifted completely to the 105 kDa form,Sp1 phosphorylation [5],25 µM
